From PubChem BioAssay AID179 (DTP/NCI, 2004) come the findings set out here.

Where “and” joins values, the source holds several entries; their conditions need not be identical. Equal values may be shown once. Calls of active or inactive are those of the source.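 The calls were made as follows: active = compounds giving half or more protection of infected cells from virus-caused growth loss, again on retest; inactive = the rest.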

The subject of the assay is CEM cells HIV-1 protection, formazan growth assay. Description: NCI AIDS Antiviral Assay. As to conditions: for IC50: measured here: growth of uninfected CEM cells. The procedure, abridged:
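Protection of CEM cells against HIV-1 measured as cell growth via soluble formazan read-out, with five concentrations tested on both infected and uninfected cells; failure to protect may reflect toxicity.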

With `CCC1CN(C(=O)c2ccccc2)C(Cc2c[nH]c3ccccc23)C(=O)C1CC(=O)OC` (stereo not given), the EC50 is above 200 µM and the IC50 turned out to be 79.4 µM.

Take `CCCC[N+](CCCC)(CCCC)C1=C([O-])C(F)(F)C1=O`: the EC50 is above 200 µM and the concentration for half-maximal inhibition (IC50) was above 200 µM.

Regarding `Cc1ccc2cc1NC(=O)N1CCN(CC1)C(=O)Nc1cc(ccc1C)NC(=O)N1CCN(CC1)C(=O)N2`, the EC50 was above 3.8 µM and the IC50 was above 3.8 µM.

On to `CCc1c([N+](=O)[O-])cc2c(c1[N+](=O)[O-])C(C)(C)CCC2C` (stereo not given), for which the EC50 is above 200 µM and the IC50 came to 14.5 µM.

For `O=[N+]([O-])c1cccc([N+](=O)[O-])c1S(=O)(=O)c1ccccc1`, the EC50 was above 61.7 µM and the half-inhibitory concentration (IC50) came out at 6.31 µM.

For `NC(=S)N/N=C1\C(=O)N(c2cccc([N+](=O)[O-])c2)C(=O)C1C(=O)Nc1cccc([N+](=O)[O-])c1` (stereo not given), the outcome was inactive.

As for `CN(C)Cc1cc(C(=O)/C=C/c2c(F)cccc2Cl)cc(CN(C)C)c1O`, the EC50 is above 20 µM and the IC50 was 4.68 µM.

Turning to `O=C(O)CCCCCNC(=O)CCC(CN(CC(=O)OCc1ccccc1)CC(=O)OCc1ccccc1)N(CC(=O)OCc1ccccc1)CC(=O)OCc1ccccc1` (stereo not given), the outcome was inactive.

Regarding `CCc1n[nH]c(CC)c1CCCCCCOc1ccc(OC)cc1Cl`, the EC50 was above 200 µM; the half-inhibitory concentration (IC50) was 9.77 µM and 10 µM.

For `N#CCCC(CCC#N)(CCC#N)NO`, the EC50 was above 200 µM and the half-inhibitory concentration (IC50) was above 200 µM.

With `OC1(c2ccccc2)c2ccccc2CCC1Br` (stereo not given), the EC50 was above 200 µM and the concentration for half-maximal inhibition (IC50) came to 56.2 µM.

In the case of `COC(=O)C1NC(C)(C(=O)OC)C2C(=O)NC(=O)C12` (stereo not given), the EC50 is above 933 µM and the concentration for half-maximal inhibition (IC50) was above 933 µM.

Regarding `O=C1C2C3CC(C4C5C=CC(C5)C34)C2C2C3CC(C12)C1C2C=CC(C2)C31` (stereo not given), the EC50 was above 28.8 µM and the IC50 was above 28.8 µM.

With `COCCCN1CC(=O)N2Cc3ccccc3CN2C(=O)C1`, the outcome was inactive and the half-inhibitory concentration (IC50) is above 200 µM.

Regarding `COc1cc(/C=N\NS(=O)(=O)c2ccc(N)cc2)ccc1O`, the EC50 is above 295 µM and the IC50 was determined as 209 µM.

For the compound `O=c1c2[nH]cnc2n(-c2ccccc2)c(=S)n1-c1ccccc1`, the EC50 was above 200 µM and the IC50 is above 200 µM.

With `Cc1cn(C2CC(O)C(CNC(=O)NO)O2)c(=O)[nH]c1=O` (stereo not given), the EC50 was above 200 µM and the half-maximal inhibitory concentration (IC50) is above 200 µM.

Turning to `O=S(=O)(O)NC1CCCCC1`, the EC50 was above 200 µM and the half-inhibitory concentration (IC50) was above 200 µM.

Regarding `CC12CP(=O)(c3ccccc3)CC1c1ccccc1C2c1ccccc1` (stereo not given), the EC50 is above 200 µM and the half-maximal inhibitory concentration (IC50) came to 31.6 µM.

On to `O=c1c2c3ccccc3[nH]c2c2cccc3c2n1CCC3`, for which the EC50 is above 200 µM and the half-inhibitory concentration (IC50) amounted to 61.7 µM.

Turning to `C=CC(C)(C)c1[nH]cnc1/C=C1\NC(=O)[C@H](C(C)C)NC1=O`, the EC50 is above 200 µM and the IC50 was determined as 2.4 µM.

Regarding `CCOC(=O)CCC(NC(=O)c1ccc(NCc2ccc3nc(-c4ccccc4)c(Cl)nc3c2)cc1)C(=O)OCC` (stereo not given), the EC50 is above 4.79 µM and the concentration for half-maximal inhibition (IC50) is above 4.79 µM.

Turning to `COc1cc(Cc2cc3c(c(C(=O)O)c2Br)OCO3)cc(OC)c1OC`, the EC50 is above 200 µM and the IC50 came out at 44.7 µM.

Turning to `CC(C)=CCC/C(C)=C/CCC1(C)C=Cc2c(c3ccccc3oc2=O)O1` (stereo not given), the result was inactive.

Regarding `CN=c1sc2nc(C#N)c(C#N)nc2n1C`, the EC50 is above 200 µM and the IC50 turned out to be 10.2 µM.

Consider `COCN1C(=O)[C@@H]2CCCN2C(=O)c2ccc(Cl)cc21`, for which the EC50 is above 200 µM and the half-maximal inhibitory concentration (IC50) was above 200 µM.

As to `C=C1C(=O)O[C@H]2[C@H]3O[C@@H](C[C@@H]12)[C@@]1(C)CC[C@H](O1)[C@H](C)CCC[C@H]3C`, the EC50 was above 20 µM and the IC50 is 1.07 µM.

With `Cc1cc(C(c2cc(C)c(O)c(C(=O)O)c2)c2cc(C)c(O)c(C(=O)O)c2)cc(C(=O)O)c1O`, the EC50 is above 269 µM and the concentration for half-maximal inhibition (IC50) is above 269 µM.

For `COc1ccc2c(c1)C(=O)CC(c1ccccc1)O2` (stereo not given), the EC50 was above 200 µM and the half-inhibitory concentration (IC50) is above 200 µM.

In the case of `COc1ccc(C2CCC(Cl)(OC)CC2C=O)cc1` (stereo not given), the EC50 was above 245 µM and the IC50 is 155 µM.

For the compound `CC1(C)C(=NNC(=S)NN)C(C)(C)C1=NNC(=S)NN`, the EC50 was above 794 µM and the IC50 was found to be 151 µM.

As for `CC1=N/C(=C\c2cccs2)C(=O)O1`, the EC50 is above 200 µM and the IC50 is above 200 µM.

In the case of `O=[N+]([O-])c1ccc2nc(-c3ccccn3)c(-c3ccccn3)nc2c1`, the EC50 is above 200 µM and the IC50 is above 200 µM.

As to `Cn1cc(NC(=O)Nc2cc(C(=O)Nc3cc(C(=O)Nc4ccc(S(=O)(=O)O)c5cc(S(=O)(=O)O)cc(S(=O)(=O)O)c45)n(C)c3)n(C)c2)cc1C(=O)Nc1cc(C(=O)Nc2ccc(S(=O)(=O)O)c3cc(S(=O)(=O)O)cc(S(=O)(=O)O)c23)n(C)c1`, the outcome was active.

In the case of `O=C1NC(Cc2ccc(O)cc2)C(=O)N2CCCC12` (stereo not given), the EC50 is above 955 µM and the 50% inhibitory concentration (IC50) was above 955 µM.

`Clc1ccc(/C(=C\c2ccccc2)Cn2ccnc2)cc1`: the EC50 was above 200 µM and the IC50 stood at 16.2 µM.

Consider `O=C1OC[C@@H]2CCCN2Cc2ccccc21`, for which the EC50 was above 87.1 µM and the concentration for half-maximal inhibition (IC50) is above 87.1 µM.

For the compound `CC(C)(CN1CCCCC1)C(=O)/C=C/c1ccc(Cl)c(Cl)c1`, the EC50 was above 33.1 µM and the IC50 came out at 3.09 µM.

As for `Cc1cc2c(=O)c3ccccc3[nH]c2c(C(N)=O)c1C`, the outcome was inactive.

As to `COc1ccc(C2=Nn3c(nc4sc(-c5ccccc5)cc4c3=O)SC2)cc1`, the EC50 was above 200 µM and the 50% inhibitory concentration (IC50) was above 200 µM.

Regarding `CCCCCCCCCCCC(=O)NCc1ccc(OC(=O)CCCCCCCCCCC)c(OC)c1`, the EC50 was above 200 µM and the half-maximal inhibitory concentration (IC50) is 40.7 µM.

As to `Nc1c(C(=O)O)nnc2ccc(Cl)cc12`, the EC50 was above 200 µM and the IC50 worked out at 186 µM.

Regarding `COc1c2occc2c(Cl)c2ccc(=O)oc12`, the EC50 was above 70.8 µM and the concentration for half-maximal inhibition (IC50) was found to be 43.7 µM.

With `Cc1cn(C(C)OCCN(O)C(N)=O)c(=O)[nH]c1=O` (stereo not given), the result was inactive.

On to `O=CC1CCC=CC1NC(=O)OCc1ccccc1` (stereo not given), for which the outcome was inactive.

Consider `COC(=O)C12CC(C3CC31)C1CC12` (stereo not given), for which the EC50 was above 251 µM and the concentration for half-maximal inhibition (IC50) is above 251 µM.

Take `O=C1C2C3CCC(O3)C2C(=O)N1N1C(=O)C2C3CCC(O3)C2C1=O` (stereo not given): the EC50 was above 200 µM and the IC50 was determined as 43.7 µM.

For `Nn1c(Cc2ccccc2)nnc1Cc1ccccc1`, the EC50 was above 200 µM and the half-inhibitory concentration (IC50) is above 200 µM.

`Cc1c(Cl)cccc1NC(=O)C(=O)c1c(O)c2ccc(O)cc2oc1=O`: the EC50 was above 95.5 µM and the concentration for half-maximal inhibition (IC50) was above 95.5 µM.

For the compound `C#C[C@]1(O)CC[C@H]2[C@@H]3CCC4=C/C(=N/OC(=O)c5cccc6c(=O)c7ccccc7[nH]c56)CC[C@@H]4[C@H]3CC[C@@]21C`, the EC50 was above 200 µM and the IC50 stood at 30.9 µM.

`CCOC(=O)NC(=O)c1cn(CCNCCO)c(=O)[nH]c1=O`: the outcome was inactive.

Regarding `NC(Cc1ccc(S(=O)(=O)O)cc1)C(=O)NC(Cc1ccc(S(=O)(=O)O)cc1)C(=O)NC(Cc1ccc(S(=O)(=O)O)cc1)C(=O)O` (stereo not given), the EC50 is above 200 µM and the IC50 is above 200 µM.

As for `CC/C(=C(\C#N)c1ccc(OC)cc1)c1ccc(N(C)C)cc1`, the EC50 was above 20 µM and the IC50 came out at 0.871 µM.

`CC1CC2NC(C)CC3NC(C)CC(N1)N32` (stereo not given): the EC50 was above 794 µM and the 50% inhibitory concentration (IC50) is above 794 µM.

As for `Cc1ccc(C(=O)n2nc(C)c(N=Nc3ccccc3)c2C)cc1`, the result was inactive.

For the compound `O=C1CCC2(O1)c1ccc(O)cc1Oc1cc(O)ccc12`, the EC50 is above 200 µM and the half-inhibitory concentration (IC50) was above 200 µM.

On to `COc1ccc(C(Nc2ccc([N+](=O)[O-])cc2)P(=O)(c2ccccc2)c2ccccc2)cc1` (stereo not given), for which the EC50 is above 200 µM and the concentration for half-maximal inhibition (IC50) is 10.5 µM.

Regarding `O=C(O)Cc1ccc(-c2cn3c(n2)sc2ccccc23)cc1`, the EC50 was above 200 µM and the IC50 was above 200 µM.

Consider `O=C1CCC[C@]2(CCCC(=O)N2)C1`, for which the outcome was inactive.

As to `COc1cc(C2c3cc4c(cc3OC(N3CCOCC3)C2C)OCO4)cc(OC)c1O` (stereo not given), the EC50 was above 200 µM and the IC50 is 8.51 µM.

For `N#Cc1cc2c(n(C3OC(CO)C(O)C(O)C3O)c1=S)CCCCCC2` (stereo not given), the EC50 is above 200 µM and the IC50 was above 200 µM.

In the case of `O=c1n(-c2ccccc2)c(=O)n2c(=O)n(-c3ccccc3)c(=O)n12`, the EC50 was above 100 µM and the IC50 is above 100 µM.

With `CC(=O)OC1C(COC(=O)c2ccccc2)OC(Nc2ncc(-c3ccc(Br)cc3)s2)C(OC(=O)c2ccccc2)C1OC(=O)c1ccccc1` (stereo not given), the EC50 was above 200 µM and the IC50 was 20.4 µM.

For the compound `C=CC[C@@H]1C(=O)[C@@]2(O[Si](C(C)C)(C(C)C)C(C)C)CC[C@@H]1C[C@H]2NC(=O)OCC(Cl)(Cl)Cl`, the EC50 was above 200 µM and the 50% inhibitory concentration (IC50) is above 200 µM.

Take `CC1CN2COC(=S)SSSSC(=S)OCN3CC(C)N(COC(=S)SSSSC(=S)OCN1CC2C)CC3C` (stereo not given): the EC50 is above 100 µM and the half-maximal inhibitory concentration (IC50) is 12 µM.

Consider `CN(C(=O)C12C3C4C1C1C2C3C41C(=O)C(C)(C)C)C(C)(C)C` (stereo not given), for which the EC50 is above 6.61 µM and the IC50 was above 6.61 µM.

Regarding `C/C(=N\NS(=O)(=O)c1ccc(C)cc1)c1cc2ccccc2n1C`, the EC50 was above 79.4 µM and the half-maximal inhibitory concentration (IC50) was above 79.4 µM.

In the case of `COC(=O)C1(O)c2ccccc2N=C2C1CCN2C` (stereo not given), the EC50 is above 27.5 µM and the IC50 was above 27.5 µM.

Consider `CC1(Br)OC(=O)C(C)(Br)OC1=O` (stereo not given), for which the EC50 was above 200 µM and the half-maximal inhibitory concentration (IC50) is above 200 µM.

On to `COc1ccc(N2C(=O)C3c4[nH]c5ccc(C)cc5c4C4CCC(C(C)(C)C)CC4C3C2=O)cc1` (stereo not given), for which the EC50 was 12 µM and the IC50 is 47.9 µM.

As a reminder, the EC50 is the concentration giving half of the maximal effect. Usually IC50 stands for the midpoint of a concentration-inhibition curve.
